Measured values: US12648928B2, “Intervention strategy for prevention or treatment of diabetes mellitus, autoimmune disease, inflammatory disease or cardiovascular disease” (ACADEMISCH MEDISCH CENTRUM, priority 2020, dated 2026)

How the values were obtained:
[1] = tested on: murine CD4+ T cells; experiment: In vitro CD4+ T cell activation assay (anti-CD3/anti-CD28); type: cell-based; settings: for Th1 responses in CD4 T cells: anti-CD3 & anti-CD28 mAbs, 24 hours (FIG. 11)
Description: Primary CD4+ T cells were freshly isolated by negative selection from spleens of C57/B16 mice (N=3 per experiment). Briefly, spleens were smashed in a culture dish and passed twice through a strainer (70 μm and 40 μm, respectively) to obtain a single-cell suspension.
Using the negative selection (CD4+ T Cell Isolation kit, Miltenyi Biotec, #130-10-454). Non-CD4 T cells were depleted by retaining them in LS magnetizing column (Miltenyi Biotec).
Isolated CD4 T cells were cultured in 96-well plates (1×10^5 per well) in RPMI1640 medium supplemented with 10% fetal bovine serum, 100 U/ml penicillin, 100 μg/ml streptomycin, 2 mM L-glutamine. Treatment with the metabolites 6-BT (1/10 μM), LysoPC(20:0) (10/50 μM) or MA-GPC (10/50/100 μM) and activation with 2.5 μg/ml soluble anti-CD3 (145-2C11, eBioscience) and 1 μg/ml soluble anti-CD28 (37.51, eBioscience) antibodies started immediately after seeding in 200 i/well complete RPMI1640 media for a 24-hour period, at the end of which supernatant was harvested and stored at −80° C.
(§1) Specific ELISAs (R&D Systems) were utilized to measure the concentration of TNFα, IFNβ, and IFNγ in cell supernatant of murine monocytes, macrophages ad T cells, respectively, according to the manufacturer's instructions. The concentration of insulin after 24-hour treatment with metabolites or after GSIS were determined using Rat insulin ELISA (Mercodia) according to the manufacturer's instructions. GSIS was calculated by subtracting the concentration of insulin at 1 mM glucose to the insulin rate at 22 mM glucose.
Particularly in the context of autoimmune diabetes, the activity of T cells is driving disease onset and progression. […] To mimic antigen presentation, murine CD4 T cells (isolated from spleens; Uchimura T., The Innate Immune Sensor NLRC3 Acts as a Rheostat that Fine-Tunes T Cell Responses in Infection and Autoimmunity. Immunity 2019) were activated by monoclonal antibodies against CD3 and CD28 (2.5 and 1 μg/ml, respectively).

[2] = tested on: murine bone marrow-isolated monocytes or bone marrow-derived macrophages; experiment: In vitro stimulation of murine monocytes / bone marrow-derived macrophages, cytokine ELISA; type: cell-based; settings: for cytokine secretion by monocytes: murine monocytes CD11b+ activated with LPS (10 μg/ml) for 24 hours, TLR4 stimulation (FIG. 8)
Description: Naïve bone marrow monocytes were isolated from BM cells. Briefly, hind legs were removed from 3 mice, cleaned from surrounding muscles. The femur and tibia bones were trimmed at their extremities, the BM content was flushed out with cold PBS using a 10 ml syringe and a 25G needle and filtered through a 40 μm strainer. Red blood cells (RBC) were lysed with 1× RBC lysis buffer (Biolegend) for 5 min. on ice. CD11b+ monocytes were further purified by positive selection using a cocktail of CD11 b magnetic beads (Miltenyi Biotec, #130-049-601) and magnetizing MS columns (Miltenyi Biote) according to the manufacturer's instructions. Subsequently, monocytes were seeded in F-bottom 96-well plates at 1×10^5 cells per well in RPMI1640 supplemented with 10% heat-inactivated fetal bovine serum, penicillin (100 U/ml), streptomycin (100 μg/ml), L-glutamine (2 mM) […]. Monocytes were activated with 10 μg/ml LPS (Sigma-Aldrich) and subjected to treatment with 6-BT (10/100 μM), LysoPC(20:0) (10/50 μM), MA-GPC (10/50/100 μM), or appropriate vehicle. Cells were kept in a final volume of 200 μl/well for 24 hours, after which supernatant was harvested and stored at −80° C.
Bone marrow-derived macrophages (BMDM) and DC (BMDC) were obtained by differentiating freshly isolated BM cells from femur and tibia bones (as above described) of C57/B16 mice (N=3 per experiment). For BMDM, BM cells were seeded at 3×10^6 cells per 10 cm dish and cultured for 7 days in 12 ml RPMI1640 medium with 20% fetal bovine serum, 30% L-929 cell conditioned media, as source of murine macrophage colony-stimulating factor (M-CSF). For BMDC, BM cells were seeded at 0.5×10^6/ml cells in 25 ml in 10 cm dishes and cultured for 7 days in presence of GM-CSF in 5% FBS-RPMI1640 medium. After differentiation, BMDM/DCs were harvested, counted and seeded at a density of 1×10^5 cells per well in a F-bottom 96-well plate and left to adhere for 20 hours before experiments were performed. Macrophages were activated with 10 μg/ml polyinosinic-polycytidylic acid poly(I.C) (InvivoGen) for 24 hours in presence or not of 6-BT (10/100 μM), LysoPC(20:0) (10/50 μM), or MA-GPC (10/50/100 μM) in a final volume of 200 μl/well. At the end of the assay, supernatant was harvested and stored at −80° C.
as §1
Here, murine bone marrow-isolated monocytes (Christ A., Western Diet Triggers NLRP3-Dependent Innate Immune Reprogramming. Cell 2018) or bone marrow-derived macrophages (Swanson K V, A noncanonical function of cGAMP in inflammasome priming and activation. JEM 2017) were exposed for 24 hours to the indicated concentrations of 6-BT (10-100 μM) in presence or not of 10 μg/ml LPS, 10 μg/ml P3C or 10 μg/ml poly(I.C).

[3] = tested on: NF-κB; experiment: NF-κB reporter macrophage luciferase assay (RAW264.7); type: cell-based, murine; settings: RAW264.7 3x-κB-luc; LPS 10/100 ng/ml 2 hours; different doses (FIG. 7)
Description: NF-κB signaling activation was assessed by luciferase activity assay. RAW264.7 cells stably transfected with the 3×-κB-luc plasmid (DNA construct containing three NF-κB sites from the Ig κ light chain promoter coupled to the gene encoding firefly luciferase) were grown in DMEM medium supplemented with 10% heat-inactivated fetal bovine serum, penicillin (100 U/ml), streptomycin (100 μg/ml), L-glutamine (2 mM). Cells were seeded in F-bottom 96-well […] metabolites at different concentrations (6-BT 0,1-100 μM, LysoPC(20:0) 1-10 μM, 16:0-18:2 PE 1-50 μM, MA-GPC 1-100 μM). Afterwards, cells were lysed with 25 μl/well 1×passive lysis buffer and firefly luciferase activity was measured by LUCIFERASE® Assay System (Promega, E1500) on a GLOMAX @-Multi Detection System (Promega).

[4] = tested on: INS1E beta cells; experiment: Seahorse XF intracellular metabolism, INS1E beta cells; type: cell-based, rat; settings: INS1E beta cells; compared with 6-BT
Excerpt: Lastly, it was investigated whether 6-BT may influence the mitochondrial metabolism of beta cells, which rely on ATP and mitochondrial metabolite production for insulin exocytosis. […] Intracellular metabolism measured using a Seahorse XF Analyzer Uchimura T., The Innate Immune Sensor NLRC3 Acts as a Rheostat that Fine-Tunes T Cell Responses in Infection and Autoimmunity.

SMILES	Th1 responses in CD4 T cells [1]	cytokine secretion by monocytes [2]	NFκB pathway activation in macrophages [3]	effect on intracellular metabolism [4]	production of the Th1 cytokine IFNgamma ([1]; CD4 T cells from spleens, anti-CD3 2.5 μg/ml and anti-CD28 1 μg/ml (FIGS. 16, 20))	type 1 IFN secretion ([2]; PolyI:C for 24 hours, TLR3 stimulation (FIG. 9))
CCCCC/C=C\C/C=C\C/C=C\C/C=C\CCCC(=O)OC[C@@H](O)COP(=O)([O-])OCC[N+](C)(C)C [A-GPC, 1-arachidonoyl-glycero-phosphocholine]	dampen Th1 responses	halt cytokine secretion	can inhibit NFκB pathway activation			
N[C@@H](Cc1c[nH]c2ccccc12)C(=O)O [tryptophan, reference compound]				exerted a different effect than 6-BT	but not tryptophan, exerted inhibitory effect	
CCCCC/C=C\C/C=C\C/C=C\C/C=C\CCCC(=O)O[C@H](COC(=O)CCCCCCCCCCCCC)COP(=O)([O-])OCC[N+](C)(C)C [MA-GPC, 1-myristoyl-2-arachidonoyl-glycero-phosphocholine]	hampers immune responses	halt cytokine secretion	can inhibit NFκB pathway activation			impair type 1 IFN secretion
